Laboratory results as given in US20030207891A1, “Combination therapy for modulating the human sexual response” (Zonagen, Inc., priority 1997, published 2003).
Counter-ions that a name gives are not always drawn.

Key:
corpus cavernosum = conditions: cited from earlier work; for erection after injection directly into the corpus cavernosum: hypodermic needle; for duration of erection after injection: intracavernosal, appropriate dose
[1] = system: male erectile dysfunction; conditions: 25 mg and 50 mg; cited from earlier work
impotentia erectionis = conditions: buccal, 100 I.U. three times a day for 14 days; cited from earlier work
[2] = system: spontaneous erections in men; assay: Effect of phentolamine and a phosphodiesterase inhibitor on spontaneous erections in men (Example 3); format: in vivo, human; conditions: alone, no sexual stimulation
Source text: Example 3 describes a study on the effect of phentolamine and a phosphodiesterase inhibitor on spontaneous erections in men.
Papaverine, a known non-specific phosphodiesterase inhibitor, in combination with phentolamine mesylate was compounded in a rapidly dissolving formulation as set out in Table 5 except that papaverine at the doses indicated below was substituted for Sildenafil.

impotent men = conditions: ingestion; cited from earlier work

SMILES | erection after injection directly into the corpus cavernosum (corpus cavernosum) | further results
CCN(CC)CCOC(=O)C(Cc1cccc2ccccc12)CC1CCCO1 (mixture of isomers) [naftidrofuryl] | caused erection | –
CCCc1nn(C)c2c(=O)[nH]c(-c3cc(S(=O)(=O)N4CCN(C)CC4)ccc3OCC)nc12 [Sildenafil, 5-[2-ethoxy-5-(4-methylpiperazine-1-ylsulfonyl)phenyl]-1-methyl-3-proplyl-6,7-dihydro-1-H-pyrazolo[4,3-d]pyrimidin-7-one] | – | effectiveness at various doses [1]: effective
CN(C)CCCN1c2ccccc2CCc2ccccc21 [imipramine] | caused erection | –
CC[C@H](C)[C@@H]1NC(=O)[C@H](Cc2ccc(O)cc2)NC(=O)[C@@H](N)CSSC[C@@H](C(=O)N2CCC[C@H]2C(=O)N[C@@H](CC(C)C)C(=O)NCC(N)=O)NC(=O)[C@H](CC(N)=O)NC(=O)[C@H](CCC(N)=O)NC1=O [oxytocin] | – | improvement of impotentia erectionis, patients treated (impotentia erectionis): 12 of the 16
COc1ccc(Cc2nccc3cc(OC)c(OC)cc23)cc1OC [papaverine] | caused erection | duration of erection after injection (corpus cavernosum): unrelenting erection lasting for hours
CC(COc1ccccc1)N(CCCl)Cc1ccccc1 (centres unmarked) [phenoxybenzamine] | caused erection | duration of erection after injection (corpus cavernosum): unrelenting erection lasting for hours
Cc1ccc(N(CC2=NCCN2)c2cccc(O)c2)cc1 [phentolamine mesylate] | – | spontaneous erections [2]: did not exhibit spontaneous erections
Cc1ccc(N(CC2=NCCN2)c2cccc(O)c2)cc1 [phentolamine] | caused erection | –
CC(=O)Oc1cc(C(C)C)c(OCCN(C)C)cc1C [thymoxamine] | caused erection | –
COc1ccc(CCN(C)CCCC(C#N)(c2ccc(OC)c(OC)c2)C(C)C)cc1OC (centres unmarked) [verapamil] | caused erection | –
COC(=O)[C@@H]1[C@H]2C[C@H]3c4[nH]c5ccccc5c4CCN3C[C@@H]2CC[C@@H]1O [yohimbine] | – | subjective improvement in erectile ability, impotent men treated (impotent men): 38%; treated patients reporting complete satisfaction (impotent men): 5%
